Assay results taken from US10927123B2, “Modulators of the beta-3 adrenergic receptor useful for the treatment or prevention of disorders related thereto” (Arena Pharmaceuticals, Inc., priority 2016, dated 2021).

Target: Beta-3 Adrenergic Receptor (Homo sapiens (Human), UniProt P13945)
Test: HTRF cAMP antagonist assay (IC50 determination)
Type: cell-based
Settings: CHO-K1 cells stably expressing recombinant receptor; antagonism of isoproterenol at EC90; cAMP readout
Summary of the method: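 Antagonist mode: isoproterenol at its predetermined EC90 added after compound to recombinant CHO-K1 cells in IBMX-containing PBS, 1 h, room temperature. Compounds tested as 5-fold, 10-point dilutions, top final typically 10 or 100 μM. HTRF signal converted to cAMP via standard curve, giving IC50.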

Chain of Beta-3 Adrenergic Receptor (P13945 whole entry, species assumed): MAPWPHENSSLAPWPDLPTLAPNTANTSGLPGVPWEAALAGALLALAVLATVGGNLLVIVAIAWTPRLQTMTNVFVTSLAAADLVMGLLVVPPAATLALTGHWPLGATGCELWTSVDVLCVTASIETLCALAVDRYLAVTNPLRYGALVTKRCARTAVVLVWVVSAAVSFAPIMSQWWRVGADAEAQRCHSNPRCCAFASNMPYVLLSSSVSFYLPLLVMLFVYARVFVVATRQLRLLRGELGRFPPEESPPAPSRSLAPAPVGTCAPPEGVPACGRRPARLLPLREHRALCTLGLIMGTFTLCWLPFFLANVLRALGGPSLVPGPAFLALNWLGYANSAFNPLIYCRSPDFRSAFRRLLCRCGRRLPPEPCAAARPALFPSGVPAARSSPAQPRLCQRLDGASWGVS

Molecule `O=S(=O)(c1cccc(OC[C@@H](O)CN[C@H]2COC3(CCN(S(=O)(=O)c4ccc5ncccc5c4)CC3)C2)c1)C1CC1` [Compound 143, (S)-1-(3-(cyclopropylsulfonyl)phenoxy)-3-((R)-8-(quinolin-6-ylsulfonyl)-1-oxa-8-azaspiro[4.5]decan-3-ylamino)propan-2-ol] has an IC50 of 13.2 nM.
`O=S(=O)(c1cccc(OC[C@@H](O)CN[C@H]2COC3(CCN(S(=O)(=O)c4cnc5ccccc5c4)CC3)C2)c1)C1CC1` [Compound 144, (S)-1-(3-(cyclopropylsulfonyl)phenoxy)-3-((R)-8-(quinolin-3-ylsulfonyl)-1-oxa-8-azaspiro[4.5]decan-3-ylamino)propan-2-ol] was tested, and the IC50 was 7.77 nM.
In the case of `CCOC(=O)C(C)(C)S(=O)(=O)c1cccc(OC[C@@H](O)CN[C@H]2COC3(CCN(S(=O)(=O)c4cnc5ccccc5c4)CC3)C2)c1` [Compound 145, ethyl 2-(3-((S)-2-hydroxy-3-((R)-8-(quinolin-3-ylsulfonyl)-1-oxa-8-azaspiro[4.5]decan-3-ylamino)propoxy)phenylsulfonyl)-2-methylpropanoate], the IC50 is reported as 81.9 nM.
Molecule `O=S(=O)(c1cccc(OC[C@@H](O)CN[C@H]2COC3(CCN(S(=O)(=O)c4cnc5ccccc5c4)CC3)C2)c1)C1CC(O)C1` (stereo partly drawn) [Compound 146, 3-(3-((S)-2-hydroxy-3-((R)-8-(quinolin-3-ylsulfonyl)-1-oxa-8-azaspiro[4.5]decan-3-ylamino)propoxy)phenylsulfonyl)cyclobutanol] has an IC50 of 104 nM.
Work on `O=S(=O)(c1ccc2ncccc2c1)N1CCC2(CC1)C[C@@H](NC[C@H](O)COc1cccc(S(=O)(=O)C3(CO)CC3)c1)CO2` [Compound 147, (S)-1-(3-(1-(hydroxymethyl)cyclopropylsulfonyl)phenoxy)-3-((R)-8-(quinolin-6-ylsulfonyl)-1-oxa-8-azaspiro[4.5]decan-3-ylamino)propan-2-ol] yielded an IC50 of 53.3 nM.
`O=S(=O)(c1ccc2ncccc2c1)N1CCC2(CC1)C[C@@H](NC[C@H](O)COc1cccc(S(=O)(=O)C(F)(F)CO)c1)CO2` [Compound 148, (S)-1-(3-(1,1-difluoro-2-hydroxyethylsulfonyl)phenoxy)-3-((R)-8-(quinolin-6-ylsulfonyl)-1-oxa-8-azaspiro[4.5]decan-3-ylamino)propan-2-ol] showed an IC50 of 21.8 nM.
In the case of `COCCCS(=O)(=O)c1cccc(OC[C@@H](O)CN[C@H]2COC3(CCN(S(=O)(=O)c4cnc5ccccc5c4)CC3)C2)c1` [Compound 149, (S)-1-(3-(3-methoxypropylsulfonyl)phenoxy)-3-((R)-8-(quinolin-3-ylsulfonyl)-1-oxa-8-azaspiro[4.5]decan-3-ylamino)propan-2-ol], the IC50 is reported as 97.3 nM.
`CN1CCOc2ncc(S(=O)(=O)N3CCC4(CC3)C[C@@H](NC[C@H](O)COc3cccc(S(=O)(=O)CCCO)c3)CO4)cc21` [Compound 150, 3-(3-((S)-2-hydroxy-3-((R)-8-(1-methyl-2,3-dihydro-1H-pyrido[2,3-b][1,4]oxazin-7-ylsulfonyl)-1-oxa-8-azaspiro[4.5]decan-3-ylamino)propoxy)phenylsulfonyl)propan-1-ol] was tested, and the IC50 was 227 nM.
`CN1CCOc2ncc(S(=O)(=O)N3CCC4(CC3)C[C@@H](NC[C@H](O)COc3cccc(S(=O)(=O)CCO)c3)CO4)cc21` [Compound 151, (S)-1-(3-(2-hydroxyethylsulfonyl)phenoxy)-3-((R)-8-(1-methyl-2,3-dihydro-1H-pyrido[2,3-b][1,4]oxazin-7-ylsulfonyl)-1-oxa-8-azaspiro[4.5]decan-3-ylamino)propan-2-ol] showed an IC50 of 40.8 nM.
`CN1CCOc2ncc(S(=O)(=O)N3CCC4(CC3)C[C@@H](NC[C@H](O)COc3cccc(S(C)(=O)=O)c3)CO4)cc21` [Compound 152, (S)-1-((R)-8-(1-methyl-2,3-dihydro-1H-pyrido[2,3-b][1,4]oxazin-7-ylsulfonyl)-1-oxa-8-azaspiro[4.5]decan-3-ylamino)-3-(3-(methylsulfonyl)phenoxy)propan-2-ol] gave an IC50 of 24.7 nM.
